This is an account of results in patent US11426394B2, “Method to prevent and treat macular degeneration by calcium channel blockers, angiotensin converting enzyme inhibitors, and angiotensin receptor blockers” (priority 2018, dated 2022).

One series relates to Macular Degeneration. To be noted: chronic use; cited from earlier work.
For series [1] the following is noted: in vivo; cited from earlier work.
The next series has as its system wet macular degeneration. Briefly: Patient with wet macular degeneration: one eye treated, other eye left untreated. Format: in vivo, human. The text has this:
(§1) A patient is diagnosed with wet macular degeneration. A composition comprising the calcium channel blocker nifedipine is directly applied to the vitreous surface of one eye while the other eye is left untreated. […] A patient is diagnosed with wet macular degeneration. A composition comprising the ACE inhibitor enalapril is directly applied to the vitreous surface of one eye while the other eye is left untreated. […] A patient is diagnosed with wet macular degeneration. A composition comprising the angiotensin receptor blocker losartan is directly applied to the vitreous surface of one eye while the other eye is left untreated. […] A patient is diagnosed with wet macular degeneration. A composition comprising the calcium channel blocker nifedipine is directly injected into the intraocular space of one eye while the other eye is left untreated. […] A patient is diagnosed with wet macular degeneration. A composition comprising the ACE inhibitor enalapril is directly injected into the intraocular space of one eye while the other eye is left untreated. […] A patient is diagnosed with wet macular degeneration. A composition comprising the angiotensin receptor blocker losartan is directly injected into the intraocular space of one eye while the other eye is left untreated.

Another series has as its system dry macular degeneration. Briefly: Patient with dry macular degeneration: one eye treated, other eye left untreated. The format is in vivo, human.
Text: as §1, with “dry” for “wet”

The mark [2] stands for this setting: composition directly applied to the vitreous surface of one eye.
[3] abbreviates: composition directly injected into the intraocular space of one eye.

Turning to `CC(=O)Oc1ccccc1C(=O)O` [aspirin], in the series on Macular Degeneration, the “association with Macular Degeneration” value is listed as “increase in Macular Degeneration”.

Turning to tocopherol, the all-cause mortality result in series [1] is given as “increase in all-cause mortality”.

As for `CCCCc1nc(Cl)c(CO)n1Cc1ccc(-c2ccccc2-c2nn[nH]n2)cc1` [losartan], the “symptoms of wet macular degeneration, treated eye versus untreated eye” value in the series with wet macular degeneration (setting [2]) and in the series on wet macular degeneration (setting [3]) was “reduced symptoms of wet macular degeneration” in each case. For the same compound, the “symptoms of dry macular degeneration, treated eye versus untreated eye” value in the series on dry macular degeneration (setting [2]) and with dry macular degeneration (setting [3]) was “reduced symptoms of dry macular degeneration” in each case.

As for `CC1=C(/C=C/C(C)=C/C=C/C(C)=C/C=C/C=C(C)/C=C/C=C(C)/C=C/C2=C(C)CCCC2(C)C)C(C)(C)CCC1` [Beta carotene, beta carotene], the lung cancer result in series [1] is “increase lung cancer”.

`CCOC(=O)[C@H](CCc1ccccc1)N[C@@H](C)C(=O)N1CCC[C@H]1C(=O)O` [enalapril]: the “symptoms of wet macular degeneration, treated eye versus untreated eye” value in the series on wet macular degeneration (setting [2]) and in the series on wet macular degeneration (setting [3]) was “reduced symptoms of wet macular degeneration” throughout. For the same compound, the “symptoms of dry macular degeneration, treated eye versus untreated eye” value in the series on dry macular degeneration (setting [2]) and in the series on dry macular degeneration (setting [3]) was “reduced symptoms of dry macular degeneration” throughout.
